In BindingDB's records for PubMed 2905001 (Mcneil Pharmaceutical, 1988):
“And” between values parts separate entries of the source, which are not always exact repeats. Equal entries are not always repeated. Structures can show the parent of a compound that is named as a salt.

Assays:
[1] = target: 5-hydroxytryptamine receptor 2A (Rattus norvegicus, UniProt P14842)
[2] = target: Sodium-dependent dopamine transporter (Rattus norvegicus, UniProt P23977)
[3] = target: Sodium-dependent serotonin transporter (Rattus norvegicus, UniProt P31652)
Sequence of Sodium-dependent serotonin transporter (P31652 whole entry): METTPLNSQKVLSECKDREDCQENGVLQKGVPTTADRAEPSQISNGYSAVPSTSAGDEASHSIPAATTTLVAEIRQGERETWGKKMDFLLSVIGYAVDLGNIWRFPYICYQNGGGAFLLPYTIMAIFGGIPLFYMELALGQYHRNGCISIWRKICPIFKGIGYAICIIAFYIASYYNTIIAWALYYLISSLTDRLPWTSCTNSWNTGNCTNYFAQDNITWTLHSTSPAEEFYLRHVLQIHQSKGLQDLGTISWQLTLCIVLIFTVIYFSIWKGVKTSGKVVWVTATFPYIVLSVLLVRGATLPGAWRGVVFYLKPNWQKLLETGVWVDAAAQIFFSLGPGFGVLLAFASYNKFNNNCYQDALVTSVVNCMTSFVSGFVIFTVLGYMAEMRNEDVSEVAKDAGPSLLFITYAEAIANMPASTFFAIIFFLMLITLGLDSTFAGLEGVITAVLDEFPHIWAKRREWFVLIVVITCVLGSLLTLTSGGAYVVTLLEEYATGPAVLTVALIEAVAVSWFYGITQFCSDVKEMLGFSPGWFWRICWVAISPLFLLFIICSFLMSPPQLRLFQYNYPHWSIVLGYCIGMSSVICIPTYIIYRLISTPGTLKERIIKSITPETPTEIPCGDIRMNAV

[4] = target: Norepinephrine transporter (Rattus norvegicus, UniProt Q9JIA2)
[5] = target: T1, Alpha-1A adrenergic receptor (Rattus norvegicus, UniProt P43140)
T1 sequence (P43140 whole entry): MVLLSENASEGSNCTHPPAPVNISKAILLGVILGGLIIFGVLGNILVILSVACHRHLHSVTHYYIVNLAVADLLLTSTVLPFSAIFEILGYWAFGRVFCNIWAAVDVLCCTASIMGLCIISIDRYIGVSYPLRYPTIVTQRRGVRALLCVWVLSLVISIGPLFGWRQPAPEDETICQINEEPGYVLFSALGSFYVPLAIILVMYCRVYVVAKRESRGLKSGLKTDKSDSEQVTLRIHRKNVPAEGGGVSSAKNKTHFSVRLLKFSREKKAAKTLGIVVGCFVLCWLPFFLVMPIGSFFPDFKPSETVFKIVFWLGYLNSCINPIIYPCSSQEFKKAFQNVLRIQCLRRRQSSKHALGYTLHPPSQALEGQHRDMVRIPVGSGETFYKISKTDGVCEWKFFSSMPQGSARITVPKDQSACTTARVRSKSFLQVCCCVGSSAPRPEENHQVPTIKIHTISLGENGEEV

Sequence of 5-hydroxytryptamine receptor 2A (P14842 whole entry): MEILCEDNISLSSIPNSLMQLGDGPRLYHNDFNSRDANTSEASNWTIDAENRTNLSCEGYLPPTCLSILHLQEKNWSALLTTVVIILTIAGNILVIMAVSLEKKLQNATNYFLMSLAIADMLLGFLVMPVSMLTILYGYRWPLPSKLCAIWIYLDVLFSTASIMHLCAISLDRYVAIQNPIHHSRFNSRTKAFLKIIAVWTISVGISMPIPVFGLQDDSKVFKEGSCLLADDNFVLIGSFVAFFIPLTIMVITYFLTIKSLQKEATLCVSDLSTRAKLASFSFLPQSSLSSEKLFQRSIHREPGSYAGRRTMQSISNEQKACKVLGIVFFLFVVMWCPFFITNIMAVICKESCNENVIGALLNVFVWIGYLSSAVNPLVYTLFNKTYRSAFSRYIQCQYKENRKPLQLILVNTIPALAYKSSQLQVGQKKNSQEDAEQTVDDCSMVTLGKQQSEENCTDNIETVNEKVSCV
Sequence of Sodium-dependent dopamine transporter (P23977 whole entry): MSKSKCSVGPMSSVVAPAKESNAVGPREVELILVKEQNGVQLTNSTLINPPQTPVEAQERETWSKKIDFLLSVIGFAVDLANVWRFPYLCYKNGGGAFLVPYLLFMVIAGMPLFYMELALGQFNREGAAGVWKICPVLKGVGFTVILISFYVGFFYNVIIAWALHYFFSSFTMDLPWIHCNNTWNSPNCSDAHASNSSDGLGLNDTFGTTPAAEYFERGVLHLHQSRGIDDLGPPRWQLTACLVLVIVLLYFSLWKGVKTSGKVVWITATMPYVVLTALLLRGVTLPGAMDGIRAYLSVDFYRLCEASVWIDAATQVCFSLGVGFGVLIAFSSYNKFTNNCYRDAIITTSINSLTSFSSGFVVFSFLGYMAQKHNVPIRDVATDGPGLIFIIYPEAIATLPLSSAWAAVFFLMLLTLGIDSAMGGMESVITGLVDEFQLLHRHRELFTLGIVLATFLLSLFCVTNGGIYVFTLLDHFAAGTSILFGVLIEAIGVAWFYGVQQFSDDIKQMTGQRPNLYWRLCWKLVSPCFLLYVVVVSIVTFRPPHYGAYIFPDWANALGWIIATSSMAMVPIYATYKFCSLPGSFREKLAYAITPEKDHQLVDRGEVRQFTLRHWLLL

| SMILES | Ki [5] | Ki [1] | Ki [2] | Ki [3] | Ki [4] |
| --- | --- | --- | --- | --- | --- |
| c1ccc2c(CCC3CCNCC3)c[nH]c2c1 | – | 50.2 nM | 1040 nM | 1.72 nM | 513 nM |
| CSc1ccc(C2CN3CCCC3c3ccccc32)cc1 (stereo unspecified) | – | – | 69.8 nM | – | – |
| O=c1n(CCCN2CCN(c3cccc(Cl)c3)CC2)nc2ccccn12 [2-{3-[4-(3-chlorophenyl)piperazin-1-yl]propyl}[1,2,4]triazolo[4,3-a]pyridin-3(2H)-one] | 84 nM | – | > 10000 nM | – | 3800 nM |
| COCCCC/C(=N\OCCN)c1ccc(C(F)(F)F)cc1 [(1E)-5-methoxy-1-[4-(trifluoromethyl)phenyl]pentan-1-one O-(2-aminoethyl)oxime] | – | – | > 10000 nM | – | 299 nM |
| COc1ccc(OC[C@H]2CN(C)CC[C@@H]2c2ccccc2)cc1 [(3R,4S)-3-(4-Methoxy-phenoxymethyl)-1-methyl-4-phenyl-piperidine] | – | – | 1040 nM | – | – |
| COCCCCC(=NOCCN)c1ccc(Cl)cc1 [CAS_68717] | – | 1000 nM | 462 nM | 2.76 nM | 6.6 nM |
| CN(C)CCCN1c2ccccc2CCc2ccc(Cl)cc21 [CLOMIPRAMINE HYDROCHLORIDE] | – | – | 3810 nM | – | – |
| CN(C)C/C=C(/c1ccc(Br)cc1)c1cccnc1 [cis-[3-(4-Bromo-phenyl)-3-pyridin-3-yl-allyl]-dimethyl-amine;HCl] | – | – | > 10000 nM | – | – |

Continued, in another order:

| Ki [5] | SMILES | Ki [1] | Ki [2] | Ki [3] | Ki [4] |
| --- | --- | --- | --- | --- | --- |
| 274 nM | CSc1ccc([C@H]2CN3CCC[C@H]3c3ccccc32)cc1 [McN-5652-X-68] | 142 nM | – | – | – |
| 213 nM and 314 nM | CSc1ccc([C@@H]2CN3CCC[C@@H]3c3ccccc32)cc1 [McN-5652-Z-68] | 939 nM and 208 nM | – | – | – |
